Assay results: patent publication US7498406B2, “Substantially cell membrane impermeable compound and use thereof” (priority 1999, dated 2009)

Columns and labels:
PBMC = test: Cell number and cell viability in the PBMC HIV assay; details: 10 μM
Experimental: PBMC's (1×10^6 per mL) were incubated with GSAA or GSAO (10 μM) for 30 minutes at 37° C. and then with primary HIV isolates (HN11, HN68 or HN70 at 50 TCID50 per 10^6 cells) for 2 hours at 37° C. Cells were washed and incubated in complete medium containing GSAA or GSAO (10 μM) at 5% CO2 and 37° C. for up to 7 days. At the indicated times the conditioned medium was collected and assayed for p24 antigen and cell number and cell viability was determined.
The primary HIV isolates, HN11, HN68 and HN70, were provided by Dr. Hassan Naif, Centre for Virus Research, Westmead Millennium Institute, NSW, Australia. […] The blood was diluted 1:2 with PBS, layered onto Ficoll-Hypaque (35 mL blood onto 15 mL Ficoll-Hypaque) in 50 mL Falcon tubes and centrifuged at 400 g for 20 minutes at 20° C. The PBMC's were collected and pelleted at 1200 rpm for 10 minutes to remove platelets, resuspended at 2×10^6 cells per mL in RPMI containing 20% horse serum (Gibco BRL, Gaithersburg, Md.), 10 μg per mL phytohemagglutinin-M (PHA-M, Boehringer Mannheim Biochemica, Mannheim, Germany) and […] interleukin-2 (Sigma, St. Louis, Mo.) and incubated for 2 days at 5% CO2 and 37° C., PBMC (1×10^6 per mL) were incubated with GSAO or GSAA (10 μM) for 30 minutes at 37° C. in serum-free media. Virus was added at 50 TCID50 per 10^6 cells for 2 hours at 37° C.. […]

[1] = Stability of the trivalent arsenicals towards oxidation; assay type: physicochemical; details: slowed by removal of O2, lower pH or glycine
Source text: This oxidation can be slowed in three ways; removal of dissolved O2 from solutions containing the arsenoxides, lowering the pH of these solutions, or by addition of glycine to the solutions. Glycine is routinely used to prevent oxidation of the stock solutions of the trivalent organoarsenicals. Similar to the reaction between 2,3-dimercaptopropanol and R—As(OH)2 in which a 5-membered dithioarsonite (XI) is formed, reaction of glycine with R—As(OH)2 is thought to give a 5-membered cyclic 1,3,2-oxazarsolidin-5-one (XII).

A3.01 cells = test: Cell number and cell viability in the HIVIIIB assay; assay type: cell-based, human
Experimental: FIG. 33. […] Cells were washed and incubated in complete medium at 5% CO2 and 37° C. for up to 10 days. […] B Concentration dependence of GSAO. […] Cells were washed, incubated in complete medium at 5% CO2 and 37° C. for 3 days and the conditioned medium collected and assayed for p24 antigen.
FIG. 34. Inhibition of HIVIIIB infection of A3.01 cells by GSAO.
A3.01 human T cells were exposed to GSAO for 30 minutes and then to HTLVIIIB virus for 2 hours after which the cells were washed and then cultured for up to 10 days. HTLVIIIB and A3.01 cells were obtained from the NIH AIDS Research and Reference Reagent Program, Rockville, Mass. Virus stocks were made and infectivity titer determined using A3.01 cells and the p24 antigen assay (Coulter, Miami, Fla.). A3.01 cells were cultured in RPMI medium containing 10% fetal calf serum. […] Cell numbers and cell viability were determined at the times specified by staining cells with trypan blue and counting using a Neubauer haemacytometer. Cell viability was measured as a percentage of live cells to total cells.

BAE cells = assay type: cell-based, bovine; details: up to 10 mM concentration (not shown)
BVSM = test: Viability of cultured cells, 72 hr; assay type: cell-based, bovine; details: 5% BCS, 0 to 1 mM
Experimental: FIG. 19. Effect of GSAO on proliferation of non-endothelial cells. 15,000 BxPC-3 (part A), HT1080 (part B), 3T3 (part C) or BVSM (part D) cells per well were seeded into gelatinised 24-well culture plates and allowed to attach for 24 hr. The media was then replaced with DMEM containing 0 to 1 mM GSAO or GSAA and either 5% BCS (part D) or 5% FCS (parts A, B and C). Cells were cultured for 72 hr and then dispersed and counted. The dotted lines indicate the cell number in control wells containing DMEM and 2% BCS (part D) or 2% FCS (parts A, B and C) which represented no to limited proliferation. The data points and errors represent the mean and range of duplicate wells.
BCE (Folkman et al. 1979), BAE, BxPC-3 (ATCC, Bethesda, Md.), HT1080 (Jiang et al., 1999), 3T3 (ATCC, Bethesda, Md.) and BVSM (Hogg et al., 1997) cells were harvested and cultured as indicated. […] Cells were cultured for 0 to 72 hr in 10% CO2 at 37° C. then dispersed in trypsin/EDTA (GibcoBRL, Granc Island, N.Y.), resuspended in Coulter balanced electrolyte solution and counted with a Z1 Coulter counter (Coulter Corp., Miami, Fla.) in all experiments there were two control wells containing DMEM with 1% GPS and either 5% BCS for BCE cells, 2% BCS for BAE and BVSM cells, or 2% FCS for BxPC-3, HT1080 and 3T3 cells. […]

| Compound | proliferation of PBMC's (PBMC) | viability of PBMC's (PBMC; 7 days) | stability of solutions towards oxidation [1] | effect on cell proliferation (A3.01 cells; 10 μM in the culture medium) | effect on cell viability (A3.01 cells; 10 μM in the culture medium) | effect on cell proliferation or cell viability (A3.01 cells; up to 100 μM, pre-incubation only) | effect on BAE viability (BAE cells) | Viability IC50 (BVSM) |
| --- | --- | --- | --- | --- | --- | --- | --- | --- |
| NC(CCC(=O)NC(CSCC(=O)Nc1ccc([As]=O)cc1)C(=O)NCC(=O)O)C(=O)O (centres unmarked) [GSAO, 4-(N-(S-glutathionylacetyl)amino)-phenylarsenoxide] | inhibited proliferation | no effect of cell viability | deactivated over time by oxidation | small inhibitory effect on cell proliferation | no effect on cell viability | no effect on cell proliferation or cell viability |  |  |
| N[C@@H](CCC(=O)N[C@@H](CSCC(=O)Nc1ccc([As](=O)(O)O)cc1)C(=O)NCC(=O)O)C(=O)O [GSAA, 4-(N-(S-glutathionylacetyl)amino)phenylarsonic acid, reference compound] |  |  |  |  |  |  | no significant effect | no significant effect |
